Measurements as given in patent US7838045B2, “Anti-inflammatory activity of phenethylisothiocyanate (PEITC) and the Barbarea verna seed preparation containing this compound” (priority 2005, dated 2010).
pIC50: −log10 of the molar value.

Legend:
Format in all cases: cell-based, mouse
[1] = system: COX2; experiment: qPCR gene expression in LPS-stimulated RAW264.7 macrophages, COX2; details: for COX2 % down-regulation: 8 hour treatment
Procedure: (§1) The mouse monocyte/macrophage cell line RAW 264.7 (obtained from American Type Culture Collection, ATCC, VA USA) was maintained in Dulbecco's Modified Eagle Medium (DMEM) (Invitrogen Inc) supplemented with 100 U/ml penicillin, 100 μg/ml streptomycin, and 10% heat-inactivated fetal calf serum. All incubations were at 37° C. in a 5% CO2 in internal air atmosphere, within the growth chamber.
Cells were seeded at a density of 0.4×10^6 cells per well (viable cell counts performed with a hemocytometer), in 24 well plates 12 hours prior to treatment. The cells were then treated with test compounds at required concentrations (pre-determined doses) for 2 hours before elicitation with LPS at 1 μg/ml for an additional 6 hours. For every experiment one positive control (cells treated only with LPS) and one negative control (cells without any treatment) were included. For treatments and the controls, two replicates were made in each case. At the end, cells were harvested in Trizol reagent (Invitrogen Inc) for subsequent cellular RNA extraction. […] Cell viability was measured by MTT assay (Mosmann (1983) J. Immunol. Methods 65:55-63).
(§2) Total RNA was extracted from RAW macrophages using Trizol reagent (Invitrogen Inc.) following manufacturer instructions. RNA was quantified spectro-photometrically by absorption measurements at 260 nm and 280 nm using NanoDrop™ system (NanoDrop Technologies Inc. DE, USA). RNA was assessed qualitatively by gel-electrophoresis methods. RNA was then treated with DnaseI (Invitrogen Inc.) also following manufacturer guidelines, to remove any traces of DNA contamination. The cDNAs were synthesized using 3 μg of RNA for each sample using Stratascript™ Reverse Transcriptase, an RNA dependent DNA polymerase (Stratagene, La Jolla, Calif.), following manufacturer protocol. Utmost care was taken to minimize any quantification inaccuracy and pipetting error.
(§3) The synthesized cDNAs were diluted 4-fold. 2 μl of each of these diluted samples were used for PCR reactions of 25 μl final volume. The other components of the PCR reactions were 0.5 μl of 6 μM gene specific primers (oligos synthesized by IDT Inc. USA), 12.5 μl of Brilliant SYBR green PCR master mix (2×) (Stratagene, La Jolla, Calif.) containing green jump-start Taq ready mix. ROX (Stratagene, La Jolla, Calif.) was used as an internal dye. To avoid interference due to genomic DNA contamination, only intron-overlapping primers were selected using the software Primer Express™ (Applied Biosystem, Foster City, Calif.) as follows:
(§4) Forward and reverse pairs of the primers are indicated above as “F” and “R” respectively. PCR amplifications were performed on MX3000p system (Stratagene, La Jolla, Calif.) using 1 cycle at 50° C. for 2 min, 1 cycle of 95° C. for 10 minutes, followed by 40 cycles of 15 seconds at 95° C. and 1 min at 60° C. The dissociation curve was completed with one cycle of 1 minute at 95° C., 30 seconds of 55° C. and 30 seconds of 95° C. NRT (non-RT control) and NTC (no template control) were included in the PCR program as quality control steps.
(§5) RNA expressions for COX2, iNOS and IL1β, normalized with respect to the expression of housekeeping β-actin gene, were analyzed using the ΔΔCt method (software from Stratagene inc, USA) as described by Pfaffl (Pfaffl, 2001, Nucleic Acids Res 29(9):2002-2007). The ΔΔCt values obtained from these analyses were converted [(1−ΔΔCt)×100] to obtain percentage of inhibition (% inhibition or % downregulation) which reflected the anti-inflammatory properties of the test compounds (Table 2, 4). A value of 100% indicates complete inhibition of LPS-stimulated genetic up-regulation. 0% implies absence of any anti-inflammatory activity of the test compound.

[2] = system: iNOS; experiment: qPCR gene expression in LPS-stimulated RAW264.7 macrophages, iNOS; details: for iNOS % down-regulation: 8 hour treatment
Procedure: as §1
(§6) Cells were seeded at a density of 0.4×10^6 cells per well (viable cell counts performed with a hemocytometer), in 24 well plates 12 hours prior to treatment. The cells were then treated with test compounds at required concentrations (pre-determined doses) for 2 hours before elicitation with LPS at 1 μg/ml for an additional 6 hours. For every experiment one positive control (cells treated only with LPS) and one negative control (cells without any treatment) were included. For treatments and the controls, two replicates were made in each case. At the end, cells were harvested in Trizol reagent (Invitrogen Inc) for subsequent cellular RNA extraction. The stock of BSP used for the assay was prepared by partially dissolving 50 mg/ml seed preparation in 95% ethyl alcohol for 15 minutes by sonication, where it released PEITC in the clear supernatant that was used for the cell treatment. Cell viability was measured by MTT assay (Mosmann (1983) J. Immunol. Methods 65:55-63).
as §2, §3, §4
as §5, with “compound. […]” for “compound.”

[3] = system: IL1β; experiment: qPCR gene expression in LPS-stimulated RAW264.7 macrophages, IL1β; details: for IL1β % down-regulation: 8 hour treatment
Procedure: as §1, §6, §2, §3, §4
as §5, with “compound. […]” for “compound.”

[4] = Mus musculus, RAW264.7, pure compound

Row | Structure (SMILES) | COX2 % down-regulation ([1]; 5 μM) | COX2 % down-regulation ([1]; 10 μM) | iNOS % down-regulation ([2]; 5 μM) [%] | iNOS % down-regulation ([2]; 10 μM) [%] | IL1β % down-regulation ([3]; 5 μM) [%] | IL1β % down-regulation ([3]; 10 μM) [%] | COX2 % down-regulation ([1]; 1 μM) [%] | COX2 % down-regulation ([1]; 20 μM) [%] | iNOS % down-regulation ([2]; 1 μM) [%] | iNOS % down-regulation ([2]; 20 μM) [%] | IL1β % down-regulation ([3]; 1 μM) [%] | IL1β % down-regulation ([3]; 20 μM) [%] | further results
1 | S=C=Nc1ccccc1 [Phenyl] | Up-regulation | 3% | 31 | 35 | 47 | 59 |  |  |  |  |  |  | 
2 | CC(C)N=C=S [Isopropyl] | Up-regulation | Up-regulation | 9 | 7 | 40 | 59 |  |  |  |  |  |  | 
3 | CC(C)(C)N=C=S [Tert-butyl] | Up-regulation | Up-regulation | 3 | 0 | 44 | 61 |  |  |  |  |  |  | 
4 | S=C=NCCc1ccccc1 [PEITC, phenethylisothiocyanate] | 19.0 ± 27.1% | 28.3 ± 15.0% | 69.8 ± 21.1 | 81.7 ± 5.5 | 86.0 ± 9.8 | 92.0 ± 10.4 | −73.5 ± 20.5 | 99.5 ± 0.7 | 2.0 ± 7.1 | 99.5 ± 0.7 | 36.5 ± 9.2 | 100.0 ± 0.0 | COX2 % down-regulation ([1]; 40 μM): 100.0 ± 0.0%; COX2 % down-regulation ([1]; 80 μM): 100.0 ± 0.0%; pIC50 [1, 4]: 4.77; iNOS % down-regulation ([2]; 40 μM): 99.5 ± 0.7%; iNOS % down-regulation ([2]; 80 μM): 99.5 ± 0.7%; pIC50 [2, 4]: 5.40; IL1β % down-regulation ([3]; 40 μM): 100.0 ± 0.0%; IL1β % down-regulation ([3]; 80 μM): 100.0 ± 0.0%; pIC50 ([3]; Mus musculus, RAW264.7, pure compound, read-out: IC50 in IL1 β-assay): 5.70
5 | CS(=O)(=O)c1ccc(C2=C(c3ccccc3)C(=O)OC2)cc1 [rofecoxib] | 8% | 22% | 37 | 68 | 10 | 12 | −52 | 25 | 35 | 45 | 18 | 15 | 
6 | C=CCN=C=S [Allyl] | Up-regulation |  | 76 |  | 86 |  |  |  |  |  |  |  | iNOS % down-regulation ([2]; 5 μM, listed as allyl): equally active as PEITC; IL1β % down-regulation ([3]; 5 μM, listed as allyl): equally active as PEITC
